Source: patent US5488033A, “Treatment to reduce edema” (The Regents of the University of California, priority 1994, dated 1996)
No end group written: not given here.

Legend:
[1] = test system: cerebral cortex and basal ganglia (brain edema); assay: Freeze injury of cerebral cortex, water and sodium content as index of brain edema; type: in vivo, rat; conditions: CRF 30 μg/kg s.c. 2×, ± S.E.M., N = 5
Experimental: In a second set of experiments, the brain surface, namely the cerebral cortex, was injured by freezing and the water and sodium content were measured in the cerebral cortex and in the basal ganglia, a part of the brain away from the freeze zone. The water and sodium content of the brain tissue served as an index of brain edema. After freeze injury, the water and sodium content of the cerebral cortex were evaluated relative to non-frozen tissues. CRF administered in two separate doses of 30 μg/kg subcutaneously, one dose 15 minutes before the injury and the second dose 90 minutes after the first dose, inhibited the two indices of brain edema.
Male SpragueDawley rats, 300-325 g, anesthetized with
ketamineacepromazine, were injected saline or CRF (30 μg/kg s.c.
2×) and injury to cerebral cortex was produced by applying a cold
probe to the skull for 1 min. Brain tissues were obtained 3 hr later and
analyzed for water and sodium content.

[2] = test system: abdominal muscle wall (vascular leakage after celiotomy); assay: Vascular leakage after celiotomy (4 cm midline incision of abdominal muscle wall), Monastral blue; type: in vivo, rat; conditions: for Area / Intensity / Lesion Size: tissues 0.5 hour after surgery; for lesion size relative to that of the saline-treated group: celiotomy
Experimental: Experiments were conducted on male Sprague-Dawley rats 243±15 gm (S.D., Simonsen Labs., Gilroy, Calif.) anesthetized with sodium pentobarbital, 60 mg/kg i.p. Monastral blue, 60 mg/kg i.v., was injected 0.2 ml/100 g, 3 minutes before a 4 cm midline incision through the abdominal muscle wall (celiotomy). Saline or CRF was administered to randomized pairs with N=8 rats per group. The size of the lesion, measured as area in mm^2, and its light intensity, were quantified using the JAVA image-analysis software program. The light intensity, given in arbitrary units, was internally calibrated using Monastral blue solutions (1-30 mg/ml) placed on white filter paper. Values are mean ± S.E.M. FIG. 2 illustrates the respective amount of vascular permeability for one pair of rats (control and treated). Tables III and IV set out data from these experiments.
CRF: injected at various doses subcutaneously 30 minutes
before a 4 cm midline incision, tissues taken 0.5 hour
CRF: 30 μg/kg s.c. injected 2 hour before a 4 cm
midline incision, tissues taken 0.5 hour after surgery

[3] = test system: Freeze Injury to Brain (vascular permeability of brain); assay: Cold (freeze) injury to rat brain, vascular leakage by Monastral blue staining; type: in vivo
Excerpt: An in vivo model of injury to study brain edema has been developed as a reproducible edema model, which has the features of immediate cortical damage followed by the subsequent development of brain edema. This model is described by Chan et al., Brain Research, 277, pp. 329-337 (1983). The model uses rats which are anesthetized. A 2.5 cm incision is made over the sagittal suture and the bone of the right hemisphere exposed. A 60 mm^2 plate attached to a brass cup filled with dry ice-acetone mixture, with a temperature of -50° C., is applied to the rat skull for one minute. The animals are sacrificed at various intervals after the onset of cold-injury. A dye is administered intravenously before the freezing. Cortical slices are then obtained of the brain.
Sixteen male rats were randomly divided into eight pairs and one rat in each pair received either saline or CRF (subcutaneously twice at 30 μg/kg, 30 min and 10 min before cold injury). The animals were anesthetized with sodium pentobarbital, 60 mg/kg intraperitoneally, and injected with Monastral blue, 60 mg/kg intravenously. A cold probe was applied onto the skull for four minutes and the brains taken out one hour after cold injury. The staining of brain tissues with Monastral blue, a colloidal pigment that gets trapped between the albuminal surface of the endothelial cell and the basement membrane, was proportional to the degree of vascular leakage. The results from the first pair are shown as FIG. 1.
The size of the lesion, measured as area in mm^2, and the degree of staining intensity, were quantified using an image-analysis software program called JAVA (Jandel Corporation, San Rafael, Calif.). The stain intensity, given in arbitrary units, was internally calibrated using Monastral blue solutions (1-30 mg/ml) placed on white filter paper. Values are mean ± S.E.M.

[4] = test system: neutropenic rats infected with Pseudomonas; assay: Neutropenic rat model of sepsis (Pseudomonas infection), survival; type: in vivo; conditions: CRF 100 μg/kg i.v. twice a day for four days after onset of fever; day 11; 9/15; P<0.002 vs saline (100% mortality by day 8)
Excerpt: The neutropenic rat model of sepsis, designed to mimic the systemic inflammatory response syndrome in humans, is described by Collins et al. from The Journal of Infectious Diseases, 159:6 (June 1989) and The Journal of Clinical Investigation, 88:885 (September 1991). […] The animals die from overwhelming infection within 7 to 9 days of infection and examination of the tissues with histological and pathological techniques reveal the characteristic organic manifestations of the systemic inflammatory response syndrome, namely, organ edema and tissue necrosis.
In a typical experiment, 10 rats serving as controls received saline and 15 rats received CRF at a dose of 100 μg/kg intravenously, given twice a day for four days after the onset of fever. At the end of 8 days, all of the animals in the control group were dead (100% mortality). By contrast, 60% (9/15) of the CRF group were still alive at day 11 when the experiment was concluded. The difference between the saline and CRF treated groups were statistically significant (P<0.002).

[5] = test system: vascular leakage produced by PAF-acether; assay: Vascular leakage produced by PAF-acether injected subcutaneously into the abdomen; type: in vivo, rat
Experimental: CRF: 30 μg/kg s.c. injected 30 minutes before subcutaneous
injection of PAF-acether (1 μg/0.1 ml/rat) into the abdomen;
muscle removed 0.5 hour later.

[6] = injured cerebral cortex, tissue 3 hr after 1 min cold probe
[7] = non-injured basal ganglia, tissue 3 hr after injury
[8] = CRF 15 μg/kg s.c. 30 minutes before incision
[9] = CRF 30 μg/kg s.c. 30 minutes before incision
[10] = CRF 30 μg/kg s.c. 2 hour before incision
[11] = CRF 60 μg/kg s.c. 30 minutes before incision
[12] = CRF 30 μg/kg s.c. twice, 30 min and 10 min before cold injury, brains taken 1 hour after injury, mean ± S.E.M.
[13] = CRF 30 μg/kg s.c. 30 minutes before PAF-acether 1 μg/0.1 ml/rat s.c., muscle removed 0.5 hour later

CRF: 41 amino acid neuropeptide, mammalian corticotropin-releasing factor; stimulates ACTH release from pituitary cells (SEEPPISLDLTFHLLREVLEMARAEQLAQQAHSNRKLMEII; not fully specified; ends and bridges not checked; UniProt P06850 154-194, looked up)
SODIUM, cerebral cortex [1, 6]: 271 ± 8 mEg/kg dry wt | WATER CONTENT, cerebral cortex [1, 6]: 77 ± 4% | SODIUM, basal ganglia [1, 7]: 215 ± 9 mEg/kg dry wt | WATER CONTENT, basal ganglia [1, 7]: 76 ± 1% | Area [2, 8]: 505 ± 16 mm^2 | Intensity [2, 8]: 2.0 ± 0.03 arbitrary units | Lesion Size [2, 8]: 1031 ± 44 | Area [2, 9]: 361 ± 18 mm^2 | Intensity [2, 9]: 1.9 ± 0.05 arbitrary units | Lesion Size [2, 9]: 676 ± 47 | Area [2, 10]: 477 ± 31 mm^2 | Intensity [2, 10]: 1.9 ± 0.03 arbitrary units | Lesion Size [2, 10]: 919 ± 51 | Area [2, 11]: 257 ± 3 mm^2 | Intensity [2, 11]: 1.8 ± 0.05 arbitrary units | Lesion Size [2, 11]: 468 ± 19 | lesion size relative to that of the saline-treated group [2, 8]: 63% | lesion size relative to that of the saline-treated group [2, 9]: 42% | lesion size relative to that of the saline-treated group ([2]; CRF 30 μg/kg s.c. 2 hours before injury): 59% | lesion size relative to that of the saline-treated group [2, 11]: 29% | Area [3, 12]: 20.8 ± 1.2 mm^2 | Intensity (staining intensity) [3, 12]: 2.0 ± 0.05 arbitrary units | Lesion Size [3, 12]: 43 ± 3 | lesion size relative to that of the saline-treated group ([3]; brain cold injury, CRF 30 μg/kg s.c. twice): 44% | correct assignment of brains to saline or CRF group by an observer unaware of pretreatment ([3]; eight pairs of rats, more damaged vs less damaged brain): 8 out of 8 | animals still alive (survival) [4]: 60% | muscle lesion size relative to that of the saline-treated control group ([5]; CRF 30 μg/kg s.c. 30 minutes before PAF-acether): 44% | Area [5, 13]: 188 ± 16 mm^2 | Intensity [5, 13]: 1.4 ± 0.05 | Lesion Size [5, 13]: 260 ± 26
